Assay results taken from patent US20250296971A1, “GASTRIC INHIBITORY PEPTIDE RECEPTOR LIGANDS” (priority 2021, published 2025).
Like-named read-outs stand apart in the source and are kept apart here. *1 amine or outer side, *2 acyl side, *3 side chain or, on linkers, in order; H or OH if unused. Where a SMILES comes first, the peptide text is derived from it. Bridges are numbered along the chain shown (N, C = ends). [ ]: non-standard residue; d: D form. The star is where a group is joined. X5 = NC(=O)[C@H](CCCCNC(=O)CN1CCN(CC(=O)O)CCN(CC(=O)O)CCN(CC(=O)O)CC1)NC(=O)CCC(=O)NCCCOCCOCCOCCCN*; X3 = O=C(O)CN1CCN(CC(=O)O)CCN(CC(=O)NCCCOCCOCCOCCCN*)CCN(CC(=O)O)CC1; NH(1-deoxy-D-glucityl) = OC[C@@H](O)[C@@H](O)[C@H](O)[C@@H](O)CN*; DOTA = O=C(O)CN1CCN(CC(=O)O)CCN(CC(=O)*)CCN(CC(=O)O)CC1; Trp(5-Cl) = N[C@@H](Cc1c[nH]c2ccc(Cl)cc12)C(=O)O; Phe(3,5-Cl2) = N[C@@H](Cc1cc(Cl)cc(Cl)c1)C(=O)O; Trp(5-OH) = N[C@@H](Cc1c[nH]c2ccc(O)cc12)C(=O)O; Pyridine(2,6-diCH2) = c1cc(C[*:1])nc(C[*:2])c1; NMeW = CN[C@@H](Cc1c[nH]c2ccccc12)C(=O)O; Phe(4-Cl) = N[C@@H](Cc1ccc(Cl)cc1)C(=O)O; Pro(4R-NH2) = N[C@H]1CN[C@H](C(=O)O)C1; 1Nal = N[C@@H](Cc1cccc2ccccc12)C(=O)O; mXylylene = c1cc(C[*:1])cc(C[*:2])c1; Glutaryl = O=C(CCCC(=O)[*:2])[*:1]; X7 = c1cc(CSCCN[*:2])cc(C[*:1])c1; Hyp = O=C(O)[C@@H]1C[C@@H](O)CN1; X1 = O=C(CN1CCC(N[*:1])CC1)[*:2]; tBuAla = CC(C)(C)C[C@H](N)C(=O)O; Suc = O=C(CCC(=O)[*:2])[*:1]; Api = NC1(C(=O)O)CCNCC1; Thp = NC1(C(=O)O)CCOCC1; Aib = CC(C)(N)C(=O)O

Biological target: T1, GIPR (CHO-K1-hGIPR cells) (Homo sapiens, UniProt P48546)
T1 construct: host or cells: CHO-K1
T1 sequence (P48546 22-466): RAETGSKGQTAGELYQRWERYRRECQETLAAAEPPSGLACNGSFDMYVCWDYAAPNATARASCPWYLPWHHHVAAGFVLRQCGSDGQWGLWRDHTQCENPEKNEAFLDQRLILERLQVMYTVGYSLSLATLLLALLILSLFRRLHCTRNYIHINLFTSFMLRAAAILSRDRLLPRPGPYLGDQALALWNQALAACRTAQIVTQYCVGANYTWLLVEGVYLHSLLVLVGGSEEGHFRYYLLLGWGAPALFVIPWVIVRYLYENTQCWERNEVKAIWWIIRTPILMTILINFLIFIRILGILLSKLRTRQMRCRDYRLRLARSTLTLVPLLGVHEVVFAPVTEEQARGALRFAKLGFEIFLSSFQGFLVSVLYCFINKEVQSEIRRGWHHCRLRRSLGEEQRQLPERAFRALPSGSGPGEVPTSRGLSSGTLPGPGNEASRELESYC
Experiment: FACS binding assay
Conditions: read-out: pIC50 Category (converted)
Experimental: In order to determine binding of compounds according to the present invention to GIPR-expressing cells, a FACS binding assay was established.
CHO-K1-hGIPR cells (GenScript Biotech, #M00486) were cultured in Ham's F12 medium (Sigma-Aldrich, #N4888) including 10% fetal calf serum (FCS), 2 mM L-glutamine, 100 U/mL penicillin, 100 μg/mL streptomycin, 200 μg/mL Zeocin and 100 μg/mL HygromycinB. Cells were detached with Accutase (Biolegend, #BLD-423201) and washed in FACS buffer (PBS including 1% FCS). Cells were diluted in FACS buffer to a final concentration of 500.000 cells per mL. 200 μL of the cell suspension were transferred to a u-shaped non-binding 96-well plate (Greiner) and cells were washed in ice-cold FACS buffer.
Cells were washed twice in FACS buffer. An additional incubation step with 1 μg/mL APC-Streptavidin (Miltenyi; #130-106-791) in 50 μL FACS buffer for 30 min on ice was performed followed by two washes with FACS buffer.
Cells were analyzed in an Attune NxT flow cytometer. Median fluorescence intensities (MFI) of the APC/Cy5-channel were calculated by Attune NxT software. MFI values were plotted against peptide concentration and four parameter logistic (4PL) curve fitting and EC50/pEC50 or IC50/pIC50 calculations were performed using ActivityBase software.

[1] = competition with 20 nM GIP-057, 4° C. for 1 hour
[2] = competition with 20 nM GIP-057, 4° C., 1 hour

Row | IC50 [1] | IC50 [2] | SMILES
1 | > 1 µM |  | CC[C@H](C)[C@@H]1NC(=O)[C@H](CC(C)C)NC(=O)C(C)(C)NC(=O)[C@@H](NC(=O)[C@H](CC(C)C)NC(=O)[C@H](CCC(=O)O)NC(=O)[C@@H]2CCCN2C(=O)[C@H](Cc2c[nH]c3ccccc23)NC(=O)[C@H](Cc2c[nH]c3ccccc23)N(C)C(=O)[C@H](CC(=O)O)NC(C)=O)CSCc2cccc(c2)CSC[C@@H](C(=O)NCCCOCCOCCOCCCNC(=O)CCC(=O)N[C@@H](CCCCNC(=O)CN2CCN(CC(=O)O)CCN(CC(=O)O)CCN(CC(=O)O)CC2)C(N)=O)NC1=O [GIP-297, Ac-Asp-Nmw-Trp-Pro-Glu-Leu-[Cys(3MeBn)-Aib-Leu-Ile-Cys]-Ttds-Lys(DO TA)-NH2] (Ac-D[NMeW]WPELC[Aib]LIC-X5; linker 7-11 via mXylylene)
2 |  | 0.01 to 0.0794 µM | CC[C@H](C)[C@@H]1NC(=O)[C@H](CC(C)(C)C)NC(=O)C(C)(C)NC(=O)[C@@H](NC(=O)[C@H](CC(C)C)NC(=O)[C@H](CCC(=O)O)NC(=O)[C@@H]2CCCN2C(=O)[C@H](Cc2c[nH]c3ccccc23)NC(=O)[C@H](Cc2c[nH]c3ccccc23)NC(=O)[C@H](CC(=O)O)NC(C)=O)CSCc2cccc(c2)CSC[C@@H](C(=O)NCCCOCCOCCOCCCNC(=O)CCC(=O)N[C@@H](CCCCNC(=O)CN2CCN(CC(=O)O)CCN(CC(=O)O)CCN(CC(=O)O)CC2)C(N)=O)NC1=O [GIP-133, Ac-Asp-Trp-Trp-Pro-Glu-Leu-[Cys(3MeBn)-Aib-Npg-Ile-Cys]-Ttds-Lys(DOTA)-NH2] (Ac-DWWPELC[Aib][tBuAla]IC-X5; linker 7-11 via mXylylene)
3 |  | < 0.01 µM | CC[C@H](C)[C@@H]1NC(=O)[C@H](CC(C)C)NC(=O)[C@H](Cc2c[nH]c3ccccc23)NC(=O)[C@@H](NC(=O)[C@@H](CC(C)C)NC(=O)[C@H](CCC(=O)O)NC(=O)[C@@H]2C[C@@H](O)CN2C(=O)[C@H](Cc2c[nH]c3ccc(Cl)cc23)NC(=O)[C@H](Cc2c[nH]c3ccccc23)NC(=O)[C@H](CC(=O)O)NC(C)=O)CSCc2cccc(n2)CSC[C@@H](C(N)=O)NC1=O [GIP-234, Ac-Asp-Trp-5Clw-Hyp-Glu-leu-[Cys(2Lut)-Trp-Leu-Ile-Cys]-NH2] (Ac-DW[Trp(5-Cl)][Hyp]E[dL]CWLIC-NH2; linker 7-11 via Pyridine(2,6-diCH2))
4 | 0.01 to 0.0794 µM |  | CC[C@H](C)[C@@H]1NC(=O)[C@H](CC(C)C)NC(=O)C2(CCOCC2)NC(=O)[C@@H](NC(=O)[C@@H](CC(C)C)NC(=O)[C@H](CCC(=O)O)NC(=O)[C@@H]2C[C@@H](O)CN2C(=O)[C@H](Cc2cc(Cl)cc(Cl)c2)NC(=O)[C@H](Cc2c[nH]c3ccccc23)NC(=O)[C@H](CC(=O)O)NC(C)=O)CSCc2cccc(n2)CSC[C@@H](C(N)=O)NC1=O [GIP-264, Ac-Asp-Trp-Egn-Hyp-Glu-leu-[Cys(2Lut)-Thp-Leu-Ile-Cys]-NH2] (Ac-DW[Phe(3,5-Cl2)][Hyp]E[dL]C[Thp]LIC-NH2; linker 7-11 via Pyridine(2,6-diCH2))
5 |  | < 0.01 µM | CC[C@H](C)[C@@H]1NC(=O)[C@H](CC(C)C)NC(=O)C2(CCOCC2)NC(=O)[C@@H](NC(=O)[C@@H](CC(C)C)NC(=O)[C@H](CCC(=O)O)NC(=O)[C@@H]2C[C@@H](O)CN2C(=O)[C@H](Cc2c[nH]c3ccc(Cl)cc23)NC(=O)[C@H](Cc2c[nH]c3ccc(O)cc23)NC(=O)[C@H](CC(=O)O)NC(C)=O)CSCc2cccc(n2)CSC[C@@H](C(N)=O)NC1=O [GIP-220, Ac-Asp-Hyw-5Clw-Hyp-Glu-leu-[Cys(2Lut)-Thp-Leu-Ile-Cys]-NH2] (Ac-D[Trp(5-OH)][Trp(5-Cl)][Hyp]E[dL]C[Thp]LIC-NH2; linker 7-11 via Pyridine(2,6-diCH2))
6 | > 1 µM |  | CC[C@H](C)[C@@H]1NC(=O)[C@H](CC(C)C)NC(=O)C2(CCOCC2)NC(=O)[C@@H](NC(=O)[C@@H](CC(C)C)NC(=O)[C@H](CCC(=O)O)NC(=O)[C@@H]2C[C@@H](O)CN2C(=O)[C@H](Cc2ccccc2)NC(=O)[C@H](Cc2c[nH]c3ccccc23)NC(=O)[C@H](CC(=O)O)NC(C)=O)CSCc2cccc(n2)CSC[C@@H](C(N)=O)NC1=O [GIP-352, Ac-Asp-Trp-Phe-Hyp-Glu-leu-[Cys(2Lut)-Thp-Leu-Ile-Cys]-NH2] (Ac-DWF[Hyp]E[dL]C[Thp]LIC-NH2; linker 7-11 via Pyridine(2,6-diCH2))
7 |  | < 0.01 µM | CC[C@H](C)[C@@H]1NC(=O)[C@H](CO)NC(=O)C2(CCOCC2)NC(=O)[C@@H](NC(=O)[C@@H](CC(C)C)NC(=O)[C@H](CCC(=O)O)NC(=O)[C@@H]2C[C@@H](O)CN2C(=O)[C@H](Cc2c[nH]c3ccc(Cl)cc23)NC(=O)[C@H](Cc2c[nH]c3ccccc23)NC(=O)[C@H](CC(=O)O)NC(C)=O)CSCc2cccc(n2)CSC[C@@H](C(N)=O)NC1=O [GIP-236, Ac-Asp-Trp-5Clw-Hyp-Glu-leu-[Cys(2Lut)-Thp-Ser-Ile-Cys]-NH2] (Ac-DW[Trp(5-Cl)][Hyp]E[dL]C[Thp]SIC-NH2; linker 7-11 via Pyridine(2,6-diCH2))
8 | > 1 µM |  | CC[C@H](C)[C@@H]1NC(=O)[C@H](CC(C)C)NC(=O)C2(CCOCC2)NC(=O)[C@@H](NC(=O)[C@@H](CC(C)C)NC(=O)[C@H](CCC(=O)O)NC(=O)[C@@H]2C[C@@H](O)CN2C(=O)[C@H](Cc2ccc(Cl)cc2)NC(=O)[C@H](Cc2c[nH]c3ccccc23)NC(=O)[C@H](CC(=O)O)NC(C)=O)CSCc2cccc(n2)CSC[C@@H](C(N)=O)NC1=O [GIP-350, Ac-Asp-Trp-Pcf-Hyp-Glu-leu-[Cys(2Lut)-Thp-Leu-Ile-Cys]-NH2] (Ac-DW[Phe(4-Cl)][Hyp]E[dL]C[Thp]LIC-NH2; linker 7-11 via Pyridine(2,6-diCH2))
9 |  | < 0.01 µM | CC[C@H](C)[C@@H]1NC(=O)[C@H](CC(C)C)NC(=O)C2(CCN(C(=O)CN3CCN(CC(=O)O)CCN(CC(=O)O)CCN(CC(=O)O)CC3)CC2)NC(=O)[C@@H](NC(=O)[C@@H](CC(C)C)NC(=O)[C@H](CCC(=O)O)NC(=O)[C@@H]2CCCN2C(=O)[C@H](Cc2c[nH]c3ccc(Cl)cc23)NC(=O)[C@H](Cc2c[nH]c3ccccc23)NC(=O)[C@H](CC(=O)O)NC(=O)CCC(=O)NCCCOCCOCCOCCCNC(=O)CN2CCN(CC(=O)O)CCN(CC(=O)O)CCN(CC(=O)O)CC2)CSCc2cccc(c2)CSCCNC1=O [GIP-053, DOTA-Ttds-Asp-Trp-5Clw-Pro-Glu-leu-[Cys(3MeBn)-Apc(DOTA)-Leu-Ile-AET]] ({X3-Suc}-DW[Trp(5-Cl)]PE[dL]C[Api](DOTA)LI; linker 7-C via X7)
10 | > 1 µM |  | CC[C@H](C)[C@@H]1NC(=O)[C@H](CC(C)C)NC(=O)C(C)(C)NC(=O)[C@@H](NC(=O)[C@H](CC(C)C)NC(=O)[C@H](CCC(=O)O)NC(=O)[C@@H]2CCCN2C(=O)[C@H](Cc2c[nH]c3ccccc23)NC(=O)[C@H](Cc2cccc3ccccc23)NC(=O)[C@H](CC(=O)O)NC(C)=O)CSCc2cccc(c2)CSC[C@@H](C(=O)NCCCOCCOCCOCCCNC(=O)CCC(=O)N[C@@H](CCCCNC(=O)CN2CCN(CC(=O)O)CCN(CC(=O)O)CCN(CC(=O)O)CC2)C(N)=O)NC1=O [GIP-293, Ac-Asp-1Ni-Trp-Pro-Glu-Leu-[Cys(3MeBn)-Aib-Leu-Ile-Cys]-Ttds-Lys(DOTA)-NH2] (Ac-D[1Nal]WPELC[Aib]LIC-X5; linker 7-11 via mXylylene)
11 |  | < 0.01 µM | CC[C@H](C)[C@@H]1NC(=O)[C@H](CC(C)C)NC(=O)C2(CCN(C(=O)CN3CCN(CC(=O)O)CCN(CC(=O)O)CCN(CC(=O)O)CC3)CC2)NC(=O)[C@@H](NC(=O)[C@H](CC(C)C)NC(=O)[C@H](CCC(=O)O)NC(=O)[C@@H]2C[C@@H](N)CN2C(=O)[C@H](Cc2c[nH]c3ccc(Cl)cc23)NC(=O)[C@H](Cc2c[nH]c3ccccc23)NC(=O)[C@H](CC(=O)O)NC(=O)CCCC(=O)NC[C@H](O)[C@@H](O)[C@H](O)[C@H](O)CO)CSCc2cccc(n2)CSC[C@@H](C(=O)NC2CCN(CC(=O)N[C@H](CCC(=O)NC[C@H](O)[C@@H](O)[C@H](O)[C@H](O)CO)C(N)=O)CC2)NC1=O [GIP-035, AGLU-Glutar-Asp-Trp-5Clw-Tap-Glu-Leu-[Cys(2Lut)-Apc(DOTA)-Leu-Ile-Cys]-APAc-glu(AGLU)-NH2] ({NH(1-deoxy-D-glucityl)-Glutaryl}-DW[Trp(5-Cl)][Pro(4R-NH2)]ELC[Api](DOTA)LIC[X1][dE](NH(1-deoxy-D-glucityl))-NH2; linker 7-11 via Pyridine(2,6-diCH2))
